# Data taken from PubChem BioAssay AID489033 (Sanford-Burnham Center for Chemical Genomics, 2010).
# Calls of active or inactive are those of the source. No rule for the calls is given here.
# Tested on: 697B B-cell line, NF-kB luciferase reporter luminescence
# Experiment: inhibitors of B-cell NF-kB luciferase signal – 697B cells, luminescence, selectivity assay for T-cell antigen receptor NF-kB inhibitors, dose response (AID 489033)
row,SMILES,IC50
1,CCCCCC(=O)N[C@@H](c1ccccc1)[C@@H](O)C(=O)O[C@H]1C[C@@]2(O)[C@@H](OC(=O)c3ccccc3)C3[C@](C)(C(=O)[C@H](OC(C)=O)C(=C1C)C2(C)C)[C@@H](O)C[C@H]1OC[C@@]31OC(C)=O (stereo partly drawn),> 80 µM (inactive)
2,O=C(NN=Cc1c(O)ccc2ccccc12)c1ccc2c(c1)OCO2,> 80 µM (inactive)
3,CCCCCCCCCn1c2c(c(=N)c3c1CCC3)CCC2,10.7 µM
4,Cc1csc2sc(-c3ccnc(SCC(=O)NCc4ccccc4)n3)c(C)c12,> 80 µM (inactive)
5,O=C(Nc1ccc(S(=O)(=O)N2CCN(Cc3ccccc3)CC2)cc1)c1cnccn1,> 80 µM (inactive)
6,O=C(Nc1ccc(S(=O)(=O)N2CCCCC2)cc1)c1ccc(CN2CCOCC2)cc1,51.2 µM (inactive)
7,O=C(Nc1ccc(N2CCCCC2)cc1)c1ccccn1,0.41 µM
8,O=C(Nc1nc(-c2ccccc2)cs1)c1ccc(N2CCOCC2)c([N+](=O)[O-])c1,6.64 µM
9,O=C1C=C(c2ccc3ncccc3c2)C[C@@H](c2ccc3c(c2)OCO3)C1,> 80 µM (inactive)
10,CC1=C(C(=O)OCc2ccc3c(c2)OCO3)C(c2ccc(Cl)cc2)NC(=O)N1 (stereo not drawn),0.46 µM
11,Cc1c(C(=O)OCC(C)C)[nH]c2c1C(=O)CC(c1cccs1)C2 (stereo not drawn),> 80 µM (inactive)
12,N=c1ccn(CC(=O)c2ccc(-c3ccccc3)cc2)cc1,19.2 µM
13,CCOC(=O)c1ccc(Nc2nc(N)c3cc(OC)c(OC)cc3n2)cc1,> 80 µM (inactive)
14,N#Cc1ccc(-c2cccs2)nc1SCc1cccnc1,> 80 µM (inactive)
15,CCn1nc(C)c(CNC(=O)c2ccc(OC3CCN(Cc4ccccn4)CC3)cc2)c1C,> 80 µM (inactive)
16,CCOc1ccc(Br)cc1C1=CC(=O)C[C@H](c2ccc(OC)cc2)C1,> 80 µM (inactive)
17,Cc1ccc(C(=O)Nc2cccc(C(=O)O)c2)cc1,1.7 µM
18,Cc1ncoc1C(=O)NC1CCCc2c1cnn2-c1ccc(C(C)(C)C)cc1 (stereo not drawn),69.7 µM (inactive)
19,CCN(CC)S(=O)(=O)c1ccc(NC(=O)c2ccc(CN3CCOCC3)cc2)cc1,10.1 µM
20,CC(=O)O[C@H]1C(=O)[C@@]2(C)C([C@H](OC(=O)c3ccccc3)[C@]3(O)C[C@H](OC(=O)[C@H](O)[C@@H](NC(=O)Cc4ccccc4)c4ccccc4)C(C)=C1C3(C)C)[C@]1(OC(C)=O)CO[C@@H]1C[C@@H]2O (stereo partly drawn),> 80 µM (inactive)
21,COc1ccccc1N1CCN(C(=O)c2cc(=O)c3cc(C)cc(C)c3o2)CC1,> 80 µM (inactive)
22,COc1cc2nc(NC(=O)c3ccco3)sc(=O)c2cc1OC,0.67 µM
23,COc1ccc(NC(=O)/C(Cl)=C(/Cl)S(=O)Cc2ccccc2)cn1 (stereo not drawn),0.6 µM
24,COc1ccc(OC)c(NS(=O)(=O)c2ccc(N3CCCC3=O)cc2)c1,> 80 µM (inactive)

row,SMILES,IC50
1,O=C(Nc1nc2ccc(S(=O)(=O)N3CCCC3)cc2s1)C1CCCCC1,> 80 µM (inactive)
2,COc1ccc(Nc2nc(-c3sc(C)nc3C)cs2)cc1,> 80 µM (inactive)
3,COc1ccc(CS(=O)(=O)/C(Cl)=C(/Cl)C(=O)Nc2ccc(OC)nc2)cc1,3.32 µM
4,CCn1c2ccccc2c2cc(NC(=O)c3cc(OC)cc(OC)c3)ccc21,> 80 µM (inactive)
5,CCc1ccc(/C=N/NC(=O)c2cc(-c3ccncc3)nc3ccccc23)s1,4.09 µM
6,COc1cccc(N2CCN(C(=O)c3ccc(CS(=O)c4ccccc4C)o3)CC2)c1 (stereo not drawn),> 80 µM (inactive)
7,COc1ccc(OC)c2c1C(=O)C(Cl)=C(Cl)C2=O,4.03 µM
8,Cc1ccc(/C=N/NC(=O)C2COc3ccccc3O2)s1 (stereo not drawn),45.6 µM (inactive)
9,Cc1sc2ncnc(NC3CCN(Cc4ccccc4)CC3)c2c1C,2.51 µM
10,CCn1cc(C(=O)NC2CCCc3c2cnn3-c2cccc(C)c2C)cn1 (stereo not drawn),> 80 µM (inactive)
11,O=C(Sc1cccc2cccnc12)c1ccccc1Br,3.61 µM
12,O=C(N/N=C/c1c(O)ccc2ccccc12)c1ccc(Br)o1,> 80 µM (inactive)
13,CCOc1ccc(N/C(N)=N/c2nc(CSc3nnc(C)s3)cc(=O)[nH]2)cc1,> 80 µM (inactive)
14,O=C(NCCOc1ccccc1)c1cc([N+](=O)[O-])ccc1N1CCOCC1,> 80 µM (inactive)
15,Nc1nc(Cl)cc(N2CCC(c3cc(-c4ccc(Cl)cc4)n[nH]3)CC2)n1,5.28 µM
16,CCOC(=O)COc1cccc2c(=O)n(CC(=O)NCc3ccccc3)ccc12,> 80 µM (inactive)
17,CCOC(=O)c1[nH]c(C)c(C(=O)Nc2ccc(C)cc2C)c1C,42.3 µM (inactive)
18,COc1ccccc1N1CCN(C(=O)c2ccc(-c3ccc(Cl)cc3)o2)CC1,66.5 µM (inactive)
19,COc1ccccc1CNS(=O)(=O)c1ccc(-c2cc(C)no2)cc1,> 80 µM (inactive)
20,COc1cccc(/C=N/Nc2ccc(C(=O)O)cc2)c1O,0.83 µM
21,O=C(c1cc(-c2ccncc2)nc2c(Cl)cccc12)N1CCN(c2ccccc2F)CC1,> 80 µM (inactive)
22,Clc1ccc(CSc2nncn2-c2ccc3c(c2)OCCO3)cc1,70 µM (inactive)
23,COC(=O)C1CN(C#N)N(c2ccc(Cl)cc2)C12c1ccccc1-c1ccccc12 (stereo not drawn),3.58 µM
24,COc1ccc(/C=N/Nc2cc(C)nc3ccc(OC)cc23)c(OC)c1,5.2 µM

row,SMILES,IC50
1,CCOCCCNC(=O)c1cc2c(=O)n3cccc(C)c3nc2n1C,> 80 µM (inactive)
2,COc1cc(CC(=O)OCC(=O)c2ccc3c(c2)OCCO3)cc(OC)c1OC,> 80 µM (inactive)
3,O=C(O)c1ccc(-c2ccc(-c3ccccc3)cc2)s1,2.46 µM
4,CCS(=O)(=O)c1ncc(Cl)c(C(=O)Nc2ccc(S(=O)(=O)N(C)c3ccccc3)cc2)n1,1.42 µM
5,Oc1ccc(Nc2nc3ccccc3nc2Nc2ccc(O)cc2)cc1,3.73 µM
6,Cc1ccc(Oc2ccc(OCC(=O)Nc3ccncc3)cc2)cc1,58.6 µM (inactive)
7,COc1ccc(/C=N/NC(=O)c2[nH]c3ccc(Br)cc3c2-c2ccccc2)cc1,> 80 µM (inactive)
8,COc1ccc(CNS(=O)(=O)c2cc(-c3cc(C)no3)ccc2C(C)C)cc1,> 80 µM (inactive)
9,CCOC(=O)N1CCN(C(=O)C2CCCN(Cc3nc(-c4ccc(Cl)cc4)oc3C)C2)CC1 (stereo not drawn),33.9 µM (inactive)
10,CC(=O)O[C@H]1C(=O)[C@]2(C)[C@H]([C@H](OC(=O)c3ccccc3)[C@]3(O)C[C@H](OC(=O)[C@H](O)[C@@H](NC(=O)c4ccccc4)c4ccccc4)C(C)=C1C3(C)C)[C@]1(OC(C)=O)CO[C@@H]1C[C@@H]2O,> 80 µM (inactive)
11,c1ccc(-c2cccc(-c3ccccn3)n2)nc1,6.4 µM
12,COC(=O)[C@]12OC[C@]34C([C@@H](O)[C@@H]1O)[C@]1(C)CC(=O)C(O)=C(C)[C@@H]1C[C@H]3OC(=O)[C@H](O)[C@@H]24 (stereo partly drawn),0.23 µM
13,O=C1C=CCC(/C=C/c2ccccc2)O1 (stereo not drawn),2.18 µM
14,CC1(C)Cc2nc3sc4c(=O)n(CC(=O)NCc5ccccc5)cnc4c3cc2CO1,> 80 µM (inactive)
15,COC(=O)Cc1[nH]n(-c2nc3ccccc3s2)c(=O)c1C(C)=Nc1ccc(OC)cc1,4.93 µM
16,CC(=O)O[C@H]1C(=O)[C@@]2(C)C([C@H](OC(=O)c3ccccc3)[C@]3(O)C[C@H](OC(=O)[C@H](O)[C@@H](NC(=O)c4ccccc4)c4ccccc4)C(C)=C1C3(C)C)[C@]1(OC(C)=O)CO[C@@H]1C[C@H]2O (stereo partly drawn),> 80 µM (inactive)
17,CCCC(=O)Nc1nc2ccc(S(=O)(=O)N3CCCCC3)cc2s1,> 80 µM (inactive)
18,C[C@@H]1C=CC(=O)O[C@@H]1c1ccc(Cl)cc1,5.11 µM
19,CC(Nc1ncnc2ccccc12)c1ccccc1 (stereo not drawn),> 80 µM (inactive)
20,CCCCC(=O)NC(c1ccc(Cl)cc1)c1ccc2cccnc2c1O (stereo not drawn),> 80 µM (inactive)
21,CCCCCc1ccc(OCCCC[n+]2ccc(C)cc2)c(CCCCC)c1,4.21 µM
22,CC1(C)C[C@H]2C=C(C=O)[C@]3(C=O)C[C@]3(C)[C@H]2C1,7.97 µM
23,C[C@@H]1O[C@@H](O[C@H]2C[C@@H](O)[C@]3(CO)[C@@H]4C(CC[C@]3(O)C2)[C@@]2(O)CC[C@H](C3COC(=O)C3)[C@@]2(C)C[C@H]4O)[C@H](O)[C@H](O)[C@H]1O (stereo partly drawn),12.2 µM
24,C[C@]12CCC3C(CCC4=CC(O)CC[C@@]43/C=N/O)C1(O)CCC2C1=CC(=O)OC1 (stereo partly drawn),2.58 µM

row,SMILES,IC50
1,CCCCN=C[C@]12CCC(O)CC1(O)CCC1[C@@H]2CC[C@]2(C)[C@H](C3C=CC(=O)O3)CCC12O (stereo partly drawn),2.49 µM
2,O=C(N/N=C/c1ccccc1Cl)c1[nH]c2ccc(Br)cc2c1-c1ccccc1,> 80 µM (inactive)
3,CCC(=O)N1c2ccc(S(=O)(=O)N3CCN(c4ccc([N+](=O)[O-])cc4)CC3)cc2CC1C (stereo not drawn),> 80 µM (inactive)
4,Cc1cccc(N2CCN(C(=O)c3ccc(CS(=O)(=O)c4ccccc4C)o3)CC2C)c1 (stereo not drawn),22.3 µM (inactive)
5,COc1cc(C(=O)N/N=C/c2cc([N+](=O)[O-])cs2)cc(OC)c1OC,5.64 µM
6,COc1ccc(C2=Nn3c(nnc3-c3ccccc3OC)SC2)cc1OC1CCCC1,3.54 µM
7,CCOc1ccc2c(c1)OC(c1ccc(OC)cc1)(C(F)(F)F)NC2=O (stereo not drawn),> 80 µM (inactive)
8,Cn1ncnc2c(=O)n(C)c(=O)nc1-2,2.85 µM
9,COc1cc(/C=C/c2ccc3cccc(O)c3n2)cc(OC)c1OC,0.63 µM
10,COc1ccc(/C=C/C(=O)c2cc(F)ccc2OC(=O)c2ccccc2)cc1OC,> 80 µM (inactive)
11,COCCn1c(C)cc(C2=NNC(=Nc3ccccc3F)SC2)c1C,20.7 µM (inactive)
12,Cc1ccc(-c2cc3c(N=O)c4ccccc4c-3n[nH]2)cc1,4.58 µM
13,CC(=O)Nc1ccc(S(=O)(=O)N2CCCc3ccccc32)cc1,> 80 µM (inactive)
14,COC(=O)c1ccccc1NC(=O)CSc1nc(-c2ccco2)cc(C(F)(F)F)n1,> 80 µM (inactive)
15,COc1cc(NS(=O)(=O)c2ccc(OC)c(C)c2C)c(OC)cc1Cl,> 80 µM (inactive)
16,COC(=O)c1[nH]c2ccc(F)cc2c1NS(=O)(=O)c1ccc(OC)cc1,> 80 µM (inactive)
17,COc1ccccc1NC(=O)Cn1nnc(C(=O)NCc2cccs2)c1N,> 80 µM (inactive)
18,Cc1cccc(N2CCN(C(=O)c3ccc4[nH]c(C)c(C)c4c3)CC2)c1C,> 80 µM (inactive)
19,Cc1cccc(OCCNC(=O)c2ccc(Cl)c(S(=O)(=O)NCc3cccnc3)c2)c1,> 80 µM (inactive)
20,COc1cc(C2C(C#N)=C(N)Oc3cc(N(C)C)ccc32)cc2c1OCO2 (stereo not drawn),> 80 µM (inactive)
21,Oc1ccc2ccccc2c1/C=N/Nc1nnc(-c2ncc[nH]2)c2ccccc12,> 80 µM (inactive)
